Data: patent US7635703B2, “Imidazole substituted pyrazole kinase inhibitors” (Janssen Pharmaceutica N.V., priority 2006, dated 2009)

Legend:
[1] = molecular target: T1, human CDK1 catalytic subunit and cyclin B (Homo sapiens, UniProt P06493); experiment: CDK1 screening assay (33P-ATP FlashPlate); type: biochemical; conditions: 10 μM ATP, 1 hr at 30° C.
T1 construct: purchased New England Biolabs, Beverly, Mass; 6020; host or cells: insect cells
Description: (§1) A kinase reaction mixture was prepared containing 50 mM Tris-HCl pH=8, 10 mM MgCl2, 0.1 mM […], 1 mM DTT, 10 μM ATP, 0.025 μM biotinylated histone-H1 peptide substrate and 0.2 μCuries per well ^33P-γ-ATP (2000-3000 Ci/mmol). 70 μL of the kinase reaction mixture was dispensed into the well of a streptavidin coated FlashPlate™ (Cat. # SMP103, NEN, Boston, Mass.).
(§2) Test compound stock in 100% DMSO (1 μL) was added to the wells resulting in a final concentration of 1% DMSO in the reaction with a 100 μL final reaction volume. Each enzyme was diluted in 50 mM Tris-HCl pH=8.0, 0.1% BSA and 30 μL was added to each well to initiate the reaction. The reaction was incubated for one hour at 30° C. At the end of the 1 hr incubation, the reaction was terminated by aspirating the mixture from the plate and washing the wells twice with PBS containing 100 mM EDTA. The biotinylated peptide substrate became immobilized on the Flashplate™ and the incorporation of ^33P-γ-ATP was measured by reading the plate on a scintillation counter. Inhibition of the enzymatic activity was measured by observing a reduced amount of ^33P-γ-ATP incorporated into the immobilized peptide.
The CDK1 enzyme was isolated from insect cells expressing both the human CDK1 catalytic subunit (Accession number NM_001786) and its positive regulatory subunit cyclin B (New England Biolabs, Beverly, Mass.; Cat. #6020). The assay used 30 ng of the N-terminal biotinylated peptide biotin-[…]-amide (Cyclin dependent kinase 1) per well.
(§3) A maximum and minimum signal for the assay was determined on each plate. The percent inhibition of a test compound was calculated according to the formula: […]
For a series of test concentrations, the IC50 was derived by graphing percent inhibition against the log of the concentrations tested for a given compound with results shown in Table 1.

[2] = molecular target: T2, rat VEGF-R2 kinase domain (polyhistidine fusion, amino acids 786 to 1343) (Rattus norvegicus, UniProt O08775); experiment: VEGFR2 screening assay (33P-ATP FlashPlate); type: biochemical; conditions: 10 μM ATP, 1 hr at 30° C.
T2 construct: amino acids 786 to 1343 of the rat VEGF-R2 kinase domain; polyhistidine (N)
T2 sequence (O08775 786-1343): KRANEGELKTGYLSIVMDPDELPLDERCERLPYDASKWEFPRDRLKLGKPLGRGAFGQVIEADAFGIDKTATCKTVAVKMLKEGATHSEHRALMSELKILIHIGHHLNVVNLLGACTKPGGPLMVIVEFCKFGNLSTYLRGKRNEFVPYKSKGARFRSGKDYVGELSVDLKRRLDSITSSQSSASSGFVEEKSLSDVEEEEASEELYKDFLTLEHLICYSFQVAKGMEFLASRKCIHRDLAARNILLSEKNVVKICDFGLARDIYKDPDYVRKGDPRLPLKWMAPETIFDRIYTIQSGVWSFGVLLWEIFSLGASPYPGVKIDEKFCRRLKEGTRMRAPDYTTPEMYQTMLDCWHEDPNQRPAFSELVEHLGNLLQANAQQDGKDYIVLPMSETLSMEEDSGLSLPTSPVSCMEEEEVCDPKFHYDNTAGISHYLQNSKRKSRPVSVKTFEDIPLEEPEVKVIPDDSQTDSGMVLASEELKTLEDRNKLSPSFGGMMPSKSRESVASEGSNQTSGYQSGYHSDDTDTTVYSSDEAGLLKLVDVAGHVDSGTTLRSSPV
Description: (§4) 70 μL of the kinase reaction mixture was dispensed into the well of a streptavidin coated FlashPlate™ (Cat. # SMP103, NEN, Boston, Mass.).
as §2
The assay used 150 ng of the N-terminal biotinylated peptide biotin-[…]-amide (VEGF-R2) per well.
as §3

[3] = molecular target: T3, murine Aurora-A (polyhistidine fusion, full length) (Mus musculus, UniProt P97477); experiment: Aurora-A screening assay (33P-ATP FlashPlate); type: biochemical; conditions: 10 μM ATP, 1 hr at 30° C.
T3 construct: followed by the full length protein encoding the murine Aurora-A; polyhistidine (N); made in house; host or cells: sf9 insect cells
T3 sequence (P97477 1-395): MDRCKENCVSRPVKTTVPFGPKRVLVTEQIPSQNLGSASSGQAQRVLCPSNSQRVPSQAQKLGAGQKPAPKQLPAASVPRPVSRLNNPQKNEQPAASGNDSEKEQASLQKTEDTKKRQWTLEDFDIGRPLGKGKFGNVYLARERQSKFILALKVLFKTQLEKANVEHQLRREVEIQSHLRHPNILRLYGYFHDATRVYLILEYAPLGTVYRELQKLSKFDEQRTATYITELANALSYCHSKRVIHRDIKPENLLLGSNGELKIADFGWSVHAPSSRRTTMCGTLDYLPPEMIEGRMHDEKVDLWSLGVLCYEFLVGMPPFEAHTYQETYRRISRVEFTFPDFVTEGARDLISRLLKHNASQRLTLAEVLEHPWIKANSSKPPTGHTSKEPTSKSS
Description: as §4, §2
Aurora-A is a fusion protein containing a polyhistidine tag at the N terminus followed by the full length protein encoding the murine Aurora-A (Accession number GB BC014711) expressed and purified from sf9 insect cells. The assay used 400 ng of the N-terminal biotinylated peptide biotin-[…]-amide (Aurora-A) per well.
as §3

A375 malignant melanoma = experiment: Cell proliferation inhibition assay (14C-thymidine incorporation), A375; type: cell-based; conditions: Homo sapiens, A-375, A375 cells
From the text: (§5) The ability of a test compound to inhibit unregulated cell proliferation may be determined by measuring incorporation of ^14C-labelled thymidine into newly synthesized DNA within cell lines derived from carcinomas originating from several tissues. Accordingly, the anti-proliferative effect of a compound on cells with a variety of phenotypes may be determined.
(§6) Carcinoma cell lines include those such as HeLa cervical adenocarcinoma (American Type Culture Collection (ATCC), Virginia, Cat. #CCL-2), A375 malignant melanoma (ATCC CRL-1619), and HCT-116 colon carcinoma (CCL-247).
(§7) The carcinoma cells are trypsinized and counted. The cells (3000-8000 count) are added to each well of a 96-well CytoStar tissue culture treated scintillating microplate (Amersham #RPNQ0160) in complete medium (100 μL) and the plate is then incubated in complete medium for 24 hrs at 37° C. in an inert atmosphere containing 5% CO2. Test compound (1 μL) in 100% DMSO is added to the plate test-wells with DMSO only added to control-wells. The plate is incubated in complete medium for a second 24 hr period at 37° C. in an atmosphere containing 5% CO2.
(§8) An aliquot of a solution of Methyl ^14C-thymidine (56 mC/mmol) (NEN #NEC568 or Amersham #CFA532) and complete medium (20 uL to provide 0.2 μCi/well) is then added to each well and the plate is incubated for a third 24 hr period at 37° C. in an atmosphere containing 5% CO2. The plate contents are then discarded, the plate is washed twice with PBS (200 μL) and then PBS (200 μL) is added to each well. The plate is sealed and the degree of methyl ^14C-thymidine incorporation is quantified on a Packard Top Count.
as §3
(§9) For a series of test concentrations, the IC50 was derived by graphing percent inhibition against the log of the concentrations tested for a given compound with results shown in Table 3.

HCT-116 colon carcinoma = experiment: Cell proliferation inhibition assay (14C-thymidine incorporation), HCT-116; type: cell-based; conditions: Homo sapiens, HCT-116 cells
From the text: as §5, §6, §7, §8, §3, §9

[4] = system: HeLa cervical adenocarcinoma; experiment: Cell proliferation inhibition assay (14C-thymidine incorporation), HeLa; type: cell-based; conditions: Homo sapiens, HeLa cells
From the text: as §5, §6, §7, §8, §3, §9

[5] = molecular target: T4, HER2 (GST/HIS6 fusion, amino acids 679 to 1255 of HER-2) (Homo sapiens, UniProt P04626); experiment: HER2 screening assay (33P-ATP FlashPlate); type: biochemical; conditions: 10 μM ATP, 1 hr at 30° C.
T4 construct: GST (Glutathione-S-Transferase) (N); HIS6 (N); thrombin cleavage site (N); purchased Proqinase, Freiburg, Germany
T4 sequence (P04626 679-1255): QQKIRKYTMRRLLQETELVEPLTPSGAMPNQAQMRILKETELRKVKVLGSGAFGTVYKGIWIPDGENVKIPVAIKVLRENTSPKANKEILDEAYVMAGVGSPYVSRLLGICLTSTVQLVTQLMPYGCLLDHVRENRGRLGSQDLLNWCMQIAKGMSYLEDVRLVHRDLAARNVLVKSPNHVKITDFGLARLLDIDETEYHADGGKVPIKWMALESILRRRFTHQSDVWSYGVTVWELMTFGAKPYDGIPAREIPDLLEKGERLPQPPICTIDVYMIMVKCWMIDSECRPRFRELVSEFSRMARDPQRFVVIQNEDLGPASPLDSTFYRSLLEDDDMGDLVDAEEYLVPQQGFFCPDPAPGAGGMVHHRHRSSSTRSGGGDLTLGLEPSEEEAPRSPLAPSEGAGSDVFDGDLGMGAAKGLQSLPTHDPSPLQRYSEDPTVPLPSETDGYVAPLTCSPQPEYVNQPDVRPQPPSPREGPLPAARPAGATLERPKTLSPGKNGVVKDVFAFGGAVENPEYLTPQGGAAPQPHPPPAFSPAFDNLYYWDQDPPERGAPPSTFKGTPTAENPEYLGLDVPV
Description: as §1, §2
The HER2 construct consisted of a fusion of GST (Glutathione-S-Transferase), HIS6 Thrombin and the nucleotides encoding amino acids 679 to 1255 of HER-2 (Accession number M11730) (Proqinase, Freiburg, Germany). The assay used 200 ng of the N-terminal biotinylated peptide biotin-poly(GT) 4:1 (HER2) per well.
as §3

T1 sequence (P06493 whole entry): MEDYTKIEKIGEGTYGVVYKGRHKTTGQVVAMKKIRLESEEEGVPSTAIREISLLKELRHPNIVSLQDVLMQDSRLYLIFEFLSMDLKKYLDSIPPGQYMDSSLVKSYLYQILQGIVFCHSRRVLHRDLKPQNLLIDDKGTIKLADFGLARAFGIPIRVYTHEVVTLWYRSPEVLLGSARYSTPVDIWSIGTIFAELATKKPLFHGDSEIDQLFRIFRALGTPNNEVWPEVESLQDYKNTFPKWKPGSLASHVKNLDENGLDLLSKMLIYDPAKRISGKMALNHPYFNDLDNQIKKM
T1 sequence (P14635 whole entry partner): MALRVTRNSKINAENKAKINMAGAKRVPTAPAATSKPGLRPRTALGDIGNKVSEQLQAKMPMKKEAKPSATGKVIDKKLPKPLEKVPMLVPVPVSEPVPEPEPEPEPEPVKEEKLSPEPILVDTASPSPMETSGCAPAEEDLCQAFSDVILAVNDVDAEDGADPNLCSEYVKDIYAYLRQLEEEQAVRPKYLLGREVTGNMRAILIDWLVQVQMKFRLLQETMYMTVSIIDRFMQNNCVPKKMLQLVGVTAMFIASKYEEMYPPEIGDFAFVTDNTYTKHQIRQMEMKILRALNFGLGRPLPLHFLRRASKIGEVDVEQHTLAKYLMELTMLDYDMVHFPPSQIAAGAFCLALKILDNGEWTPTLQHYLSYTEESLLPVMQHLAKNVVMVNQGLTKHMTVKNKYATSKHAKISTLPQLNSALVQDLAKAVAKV

IC50 [1] [µM]	IC50 [2] [µM]	IC50 [3] [µM]	IC50 (A375 malignant melanoma) [µM]	IC50 (HCT-116 colon carcinoma) [µM]	IC50 [4] [µM]	IC50 [5] [µM]	SMILES
0.113	3.06	0.297	5.59	2.92	3.58	–	FC(F)(F)c1cnc(-c2n[nH]cc2C=Cc2cncc3ccccc23)[nH]1 [Cpd 4, 4-{2-[3-(4-trifluoromethyl-1H-imidazol-2-yl)-1H-pyrazol-4-yl]-vinyl}-isoquinoline]
0.018	~10	> 10	7.44	1.75	3.18	> 100	CCNCc1cncc(/C=C/c2c[nH]nc2-c2nc(C(F)(F)F)c[nH]2)c1 [Cpd 1, ethyl-(5-{2-[3-(4-trifluoromethyl-1H-imidazol-2-yl)-1H-pyrazol-4-yl]-vinyl}-pyridin-3-ylmethyl)-amine]
0.704	> 10	> 10	> 10	70.7	> 10	> 100	N#Cc1c[nH]c(-c2n[nH]cc2/C=C/c2cccnc2)n1 [Cpd 3, 2-[4-(2-pyridin-3-yl-vinyl)-1H-pyrazol-3-yl]-1H-imidazole-4-carbonitrile]
0.483	29.4	0.117	46.5	23.8	> 10	> 100	FC(F)(F)c1c[nH]c(-c2n[nH]cc2/C=C/c2cccnc2)n1 [Cpd 2, 3-{2-[3-(4-trifluoromethyl-1H-imidazol-2-yl)-1H-pyrazol-4-yl]-vinyl}-pyridine]
